Results published in ChEMBL document CHEMBL1152986, “The macrolide resistance genes erm(B) and mef(E) are carried by Tn2010 in dual-gene Streptococcus pneumoniae isolates belonging to clonal complex CC271” (2007).
In brackets after ≈: the same amount, converted by molar mass.

System: Streptococcus pneumoniae
Test: Antibacterial activity against tetracycline-susceptible Streptococcus pneumoniae GMRS06 harboring one-nucleotide insertion stop codon in […] gene
Type: functional

CN(C)[C@@H]1C(O)=C(C(N)=O)C(=O)[C@@]2(O)C(O)=C3C(=O)c4c(O)cccc4[C@@](C)(O)[C@H]3C[C@@H]12 [TETRACYCLINE]
MIC: 0.25 µg/mL (≈ 0.563 µM)
